Consider two compounds from patent US20200247815A1, “PYRAZOLYL-CONTAINING TRICYCLIC DERIVATIVE, PREPARATION METHOD THEREFOR AND USE THEREOF” (Jiangsu Hansoh Pharmaceutical Group Co., Ltd., priority 2017, published 2020).

Series [1] in a line: Solubility (statement, no method). The series is classed as physicochemical.
For a further series, the target named is T1, ERK-1 kinase (Homo sapiens, UniProt P27361).
T1 construct: purchased Invitrogen PV3311
Description: Inhibition of ERK-1 kinase activity (LANCE Ultra TR-FRET). The series is classed as biochemical. The following applies: ERK1 enzyme 0.4 nM, ATP 38.15 μM. Summed up: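 Reactions contained 0.4 nM ERK1, 0.5 μM Ulight-MBP peptide and 38.15 μM ATP in pH 7.4 Hepes/MgCl2 buffer with 4% DMSO and ran 60 minutes at room temperature. Detection used Eu-anti-p-MBP with a 665/615 nm TR-FRET ratio, normalised to DMSO and no-enzyme controls. Final concentrations were 100 nM to 0.005 nM, and IC50 came from a 4-parameter fit.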

Series [2] relates to pancreatic cancer tumor cell Mia Paca 2. Description: Inhibition of tumor cell proliferation (CellTiter-Glo). The series is classed as cell-based. The following applies: Homo sapiens, Miapaca-2 cell, 3-7 days. How it is done: The object of this test example is to determine the inhibition effect of the present compound on tumor cell proliferation activity. The inhibition activity of the compound on tumor cell proliferation was determined by CellTiter-Glo method, and the half inhibitory concentration IC50 of the compound for inhibiting cell proliferation activity was obtained, 50-100 μL of tumor cell suspension was inoculated in a 96-well cell culture plate with a density of 1˜5*10^4 cells/ml. The plate was incubated in an incubator for 16˜24 hours (37° C., 5% CO2). Solutions of test compounds at different concentrations obtained by gradient dilution were added to the cells in the plate. The plate was incubated in an incubator for 3-7 days (37° C., 5% CO2), 50˜100 μL of CellTiter-Glo reagent was added to each well. The plate was shaked for 10 minutes, and left to stand at room temperature for 10 minutes. The value of the chemiluminescence signal was determined by a microplate reader. The inhibition rate was calculated from the value of the chemiluminescence signal. IC50 of the compound was obtained by curve fitting based on the inhibition rate at different concentrations.
The inhibition effect of the present compound on pancreatic cancer tumor cell Mia Paca 2 proliferation activity was determined by the test, and the obtained IC50 value is shown in Table 2.

In another series the target is T2, hERG potassium channel (Homo sapiens, UniProt Q12809).
T2 construct: expressed in transfected cells; host or cells: CHO-hERG cells
T2 sequence (Q12809 whole entry): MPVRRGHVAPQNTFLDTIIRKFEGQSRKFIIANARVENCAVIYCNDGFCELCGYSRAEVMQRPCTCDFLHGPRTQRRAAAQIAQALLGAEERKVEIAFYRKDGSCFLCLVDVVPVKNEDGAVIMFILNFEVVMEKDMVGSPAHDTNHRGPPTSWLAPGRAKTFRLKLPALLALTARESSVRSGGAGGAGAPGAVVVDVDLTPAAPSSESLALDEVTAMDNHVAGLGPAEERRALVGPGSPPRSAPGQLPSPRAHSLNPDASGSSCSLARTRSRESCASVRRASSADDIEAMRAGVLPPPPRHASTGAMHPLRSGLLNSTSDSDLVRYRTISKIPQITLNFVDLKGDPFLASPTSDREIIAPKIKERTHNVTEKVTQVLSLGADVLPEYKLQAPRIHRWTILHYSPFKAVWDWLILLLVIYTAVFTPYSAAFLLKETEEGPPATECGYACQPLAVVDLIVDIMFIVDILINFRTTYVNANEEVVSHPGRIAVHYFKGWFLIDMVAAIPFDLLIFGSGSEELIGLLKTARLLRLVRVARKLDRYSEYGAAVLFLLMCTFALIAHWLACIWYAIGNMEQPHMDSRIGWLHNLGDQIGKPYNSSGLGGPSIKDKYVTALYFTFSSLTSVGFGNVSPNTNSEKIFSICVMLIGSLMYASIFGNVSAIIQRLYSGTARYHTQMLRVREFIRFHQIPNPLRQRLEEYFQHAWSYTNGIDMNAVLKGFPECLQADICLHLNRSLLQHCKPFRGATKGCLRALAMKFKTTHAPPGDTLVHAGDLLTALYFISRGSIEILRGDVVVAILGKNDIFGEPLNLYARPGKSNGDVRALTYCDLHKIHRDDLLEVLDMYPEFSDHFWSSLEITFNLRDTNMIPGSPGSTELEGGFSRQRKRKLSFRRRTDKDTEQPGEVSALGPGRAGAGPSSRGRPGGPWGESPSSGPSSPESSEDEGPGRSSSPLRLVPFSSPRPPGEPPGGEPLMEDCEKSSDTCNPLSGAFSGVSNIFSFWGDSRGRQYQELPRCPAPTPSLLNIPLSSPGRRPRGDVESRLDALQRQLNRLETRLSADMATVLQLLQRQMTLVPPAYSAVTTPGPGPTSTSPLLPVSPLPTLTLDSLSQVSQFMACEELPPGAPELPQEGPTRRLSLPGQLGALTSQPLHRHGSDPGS
Description: hERG potassium channel inhibition activity test (Qpatch, CHO-hERG cells). Type of series: cell-based. How it is done: 4.1.1 CHO-hERG cells were cultured in a 175 cm2 culture flask. After the cell density reached 60˜80%, the culture solution was removed. The cells were washed with 7 mL of PBS once, and dissociated with 3 mL of Detachin.
4.1.2 After completion of dissociation, the cells were neutralized with 7 mL of culture solution. The solution was centrifuged, and the supernate was removed. The cells were resuspended in 5 mL of culture solution. The cell indensity is ensured as […].
Single cell sealing impedance and formation of whole-cell mode were automatically performed by Qpatch instrument. After obtaining the whole-cell recording mode, the cell was clamped at −80 mV. The cell first underwent pre-voltage of −50 mV for 50 msec, then underwent depolarization stimulation at +40 mV for 5 sec, and then underwent repolarization at −50 mV for 5 sec. and then the voltage returned to −80 mV. The cell underwent the stimulation at the voltage every 15 sec, and the data were recorded for 2 min, then extracellular fluid was administrated, and then the data were recorded for 5 min. Then, the administration process begun. The concentration of the test compound started from the lowest concentration, each test concentration was administrated for 2.5 min. At least three cells were tested for each concentration.
4.4.1 20 mM mother liquor of the compound was diluted with extracellular fluid, 5 uL of 20 mM mother liquor of the compound was added with 2495 uL of extracellular fluid to obtain a concentration of 40 uM (500-fold dilution). The solution was subjected to a 3-fold serial dilution with extracellular fluid containing 0.2% DMSO to obtain a required final concentration.
This concentration of DMSO had no effect on hERG potassium channel.
The experimental data was analyzed by XLFit software.

T1 sequence (P27361 whole entry): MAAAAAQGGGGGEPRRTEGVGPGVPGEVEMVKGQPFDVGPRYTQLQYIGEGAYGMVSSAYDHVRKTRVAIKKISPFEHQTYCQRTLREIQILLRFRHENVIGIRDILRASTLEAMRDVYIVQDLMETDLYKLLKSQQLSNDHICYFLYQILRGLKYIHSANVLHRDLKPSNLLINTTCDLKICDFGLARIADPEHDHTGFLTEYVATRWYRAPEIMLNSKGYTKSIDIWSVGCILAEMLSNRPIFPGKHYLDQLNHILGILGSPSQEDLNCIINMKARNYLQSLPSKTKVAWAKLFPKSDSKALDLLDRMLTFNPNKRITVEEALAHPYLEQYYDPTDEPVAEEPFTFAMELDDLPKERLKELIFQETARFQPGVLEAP

In the case of `C[C@@H](NC(=O)c1cc2cc3c(-c4ccncc4)n[nH]c3cc2[nH]1)c1ccccc1` [Example 1, (R)—N-(1-phenylethyl)-3-(pyridin-4-yl)-1,7-dihydropyrrolo[3,2-f]indazole-6-carboxamide], the “Solubility compared with ERK compounds of the prior art” value in series [1] is reported as “higher solubility”. Further, the results for the IC50 (on ERK-1 kinase; in series [2]) were 0.29 nM and 123 nM, respectively.
Consider `C[C@@H](NC(=O)c1nc2cc3c(-c4ccncc4)n[nH]c3cc2[nH]1)c1ccccc1` [Example 2, (R)—N-(1-phenylethyl)-3-(pyridin-4-yl)-1,7-dihydroimidazo[4,5-f]indazole-6-carboxamide], for which the “Inhibition effect on cardiac hERG potassium channel” value at hERG potassium channel was “no inhibition effect”. In addition, the IC50 is over 40000 nM on hERG potassium channel (CHO-hERG cells, highest test concentration 40 uM, read-out: hERG (inhibition effect on hERG current)); 0.42 nM at ERK-1 kinase; 69.1 nM in series [2]. In series [1], the “Solubility compared with ERK compounds of the prior art” value is listed as “higher solubility”.
